Measurements from ChEMBL document CHEMBL5257023, “Identification of leads for antiproliferative activity on MDA-MB-435 human breast cancer cells through pharmacophore and CYP1A1-mediated metabolism” (Eur J Med Chem, 2016).

System: MCF7
Experiment: Anticancer activity against human MCF7 cells assessed as inhibition of cell growth
Type: functional, cell-based

| SMILES | IC50 [µM] |
| --- | --- |
| COc1cc(-c2nc3cc(F)ccc3s2)cc(O)c1OC | 0.653 |
| COc1cc(-c2nc3cc(F)ccc3s2)cc(OC)c1OC | 0.0019 |
| COc1ccc(-c2nc3c(F)cccc3s2)cc1OC | 0.005 |
| COCOc1ccc(-c2nc3cc(F)ccc3s2)cc1OC | 0.065 |
| CCOc1cc(-c2nc3cc(F)ccc3s2)ccc1OC | 0.08 |
| c1ccc2sc(-c3ccc4c(c3)OCO4)nc2c1 | 57.8 |
| COc1ccc(-c2nc3cc(F)ccc3s2)cc1C | 0.048 |
| COc1ccc(-c2nc3cc(F)ccc3s2)cc1I | 0.82 |
| COc1ccc(-c2nc3ccccc3s2)cc1OC | 52.7 |
| COc1ccc(-c2nc3cc(F)ccc3s2)cc1F | 0.87 |
| COc1ccc(-c2nc3cc(F)ccc3s2)cc1Cl | 0.76 |
| COc1ccc(-c2nc3cc(F)ccc3s2)cc1Br | 0.85 |
| COc1ccc(-c2nc3cc(Cl)ccc3s2)cc1OC | 27.9 |
| COc1cc(OC)cc(-c2nc3cc(F)ccc3s2)c1 | 1.23 |
| COc1ccc(-c2nc3ccc(F)cc3s2)cc1OC | 0.062 |
| O=c1c(-c2cccc([N+](=O)[O-])c2)coc2ccccc12 | 7.9 |

| SMILES | IC50 [µM] |
| --- | --- |
| COc1ccc(-c2coc3cc(F)c(F)cc3c2=O)cc1OC | 41.5 |
| COc1ccc(-c2coc3c(F)cccc3c2=O)cc1OC | 75.5 |
| COc1ccc(-c2coc3c(F)c(F)ccc3c2=O)cc1OC | 47.2 |
| O=c1c(-c2ccc(Cl)cc2)coc2ccccc12 | 64.9 |
| O=c1c(-c2ccc3c(c2)OCO3)coc2ccc(F)cc12 | 60 |
| COc1ccc(-c2coc3cc(F)ccc3c2=O)cc1 | 43.8 |
| COc1ccc(-c2coc3cc(F)ccc3c2=O)cc1OC | 90.6 |
| COc1ccc(-c2coc3ccccc3c2=O)cc1OC | 88.1 |
| Cc1cc(-c2nc3cc(F)ccc3s2)ccc1N | 0.0001 |
| COc1ccc(-c2nc3cc(Br)ccc3s2)cc1OC | 13.6 |
| COc1ccc(-c2nc3cc(F)ccc3s2)c(OC)c1OC | 0.023 |
| Oc1ccc(-c2nc3cc(F)ccc3s2)cc1O | 0.72 |
| COc1ccc(-c2coc3ccc(F)cc3c2=O)cc1OC | 93.1 |
| COc1ccc(-c2coc3ccccc3c2=O)cc1 | 81.4 |
| O=c1c(-c2ccc(Br)cc2)coc2ccccc12 | 8.8 |
| COc1ccc(-c2coc3c(F)cc(F)cc3c2=O)cc1OC | 46.7 |
